± gives the expanded uncertainty stated by the source.
Settings: Liquid, Ebulliometric method (Recirculating still)

Row | vapor or sublimation pressure (332.4 K) [kPa] | vapor or sublimation pressure (341.4 K) [kPa] | vapor or sublimation pressure (348.3 K) [kPa] | vapor or sublimation pressure (353.9 K) [kPa] | vapor or sublimation pressure (358.5 K) [kPa] | vapor or sublimation pressure (362.6 K) [kPa] | vapor or sublimation pressure (366.2 K) [kPa] | vapor or sublimation pressure (369.4 K) [kPa] | vapor or sublimation pressure (372.4 K) [kPa] | vapor or sublimation pressure (324.4 K) [kPa] | vapor or sublimation pressure (333.4 K) [kPa] | vapor or sublimation pressure (340 K) [kPa] | vapor or sublimation pressure (345.5 K) [kPa] | vapor or sublimation pressure (350.1 K) [kPa] | vapor or sublimation pressure (354.1 K) [kPa] | vapor or sublimation pressure (357.7 K) [kPa] | vapor or sublimation pressure (360.9 K) [kPa] | vapor or sublimation pressure (363.8 K) [kPa] | SMILES
1 | 5 ± 0.1 | 7.5 ± 0.1 | 10 ± 0.1 | 12.5 ± 0.1 | 15 ± 0.1 | 17.5 ± 0.1 | 20 ± 0.2 | 22.5 ± 0.2 | 25 ± 0.2 | – | – | – | – | – | – | – | – | – | C=Cc1ccccc1 [styrene]
2 | – | – | – | – | – | – | – | – | – | 5 ± 0.1 | 7.5 ± 0.1 | 10 ± 0.1 | 12.5 ± 0.1 | 15 ± 0.1 | 17.5 ± 0.1 | 20 ± 0.2 | 22.5 ± 0.2 | 25 ± 0.2 | CCc1ccccc1 [ethylbenzene]

Reference: the NIST ThermoML archive (doi:10.1021/je200098d)
